Data from US9422254B2, “Methoxyacrylate-based fungicide and methods for preparing and using the same” (priority 2008, dated 2016).

Key:
Assay type in all cases: biochemical
[1] = molecular target: T1, cytochrome bc1 complex of pig heart (Sus scrofa, UniProt P24964); test: Enzyme activity test, Complex III; conditions: cytochrome bc1 complex of pig heart; read-out: IC50 (nM) Complex III
T1 construct: The test target is cytochrome bc1 complex of pig heart; from tissue; host or cells: pig heart
Description: (§1) Take NADH oxidase (NOX), succinate-cytochrome C oxidase (SCO), and Complex III as target enzymes, the inhibitory activity of the compound of Formula (I) was tested.
^b The test target is cytochrome bc1 complex of pig heart.

[2] = molecular target: succinate-cytochrome C oxidase (SCO) (Sus scrofa, UniProt P24964); test: Enzyme activity test, SCO
Description: as §1
(§2) ^a NOX is generally used to detect an inhibitor of Complex I and Complex III; SCO is generally used to detect an inhibitor of Complex II and Complex III. Thus, an inhibitor of Complex III should have inhibitory activity on the two enzymes.

NADH oxidase (NOX) = NADH oxidase (NOX) (Sus scrofa, UniProt P24964); test: Enzyme activity test, NOX
Description: as §1, §2

Sequence of NADH oxidase (NOX) (P24964 whole entry): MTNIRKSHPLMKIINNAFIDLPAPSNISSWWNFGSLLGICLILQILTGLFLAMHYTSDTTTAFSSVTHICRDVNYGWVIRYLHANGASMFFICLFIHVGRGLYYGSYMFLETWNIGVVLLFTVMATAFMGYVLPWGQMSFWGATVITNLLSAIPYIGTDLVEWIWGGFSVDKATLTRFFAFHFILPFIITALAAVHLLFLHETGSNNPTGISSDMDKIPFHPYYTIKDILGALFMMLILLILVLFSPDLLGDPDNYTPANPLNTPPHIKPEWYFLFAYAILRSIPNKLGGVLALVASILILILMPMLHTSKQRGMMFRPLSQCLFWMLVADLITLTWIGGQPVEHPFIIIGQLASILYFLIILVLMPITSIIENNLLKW
Sequence of succinate-cytochrome C oxidase (SCO) (P24964 whole entry): as above
T1 sequence (P24964 whole entry, one chain of several): as the sequence (P24964 whole entry) above

CO/C=C(/C(=O)OC)c1ccccc1Oc1cc(Oc2ccccc2C#N)ncn1 [Azoxystrobin, azoxystrobin, reference compound]
IC50 [1]: 200 nM | IC50 [2]: 13 nM | IC50 (NADH oxidase (NOX)): 27 nM
